Data from patent US7691575B2, “Immunomodulatory compositions” (Academia Sinica, priority 2005, dated 2010).

Tested on: human IFN γ promoter
Assay: IFN γ promoter reporter assay (dual luciferase, pIFN γ-Luc/pRL-TK) in transfected Jurkat cells
Assay type: cell-based
Description: Jurkat cells were transfected with pIFN γ-Luc and pRL-TK, or pIL-2 and pRL-TK, plasmid DNA constructs using electroporation and then treated with different plant crude extracts, which were prepared using boiling water. The fold induction was expressed in arbitrary units as the ratio of firefly luciferase activity (encoded by pIFN γ-Luc) to that of Renilla luciferase (pRL-TK).
A 615 base pair (bp) DNA fragment containing the human IFN γ promoter region from bp −487 to +128 (SEQ ID NO:1) was amplifed by polymerase chain reaction (PCR) using the specific primers (5′-[…]-3′ (SEQ ID NO:3) and 5′-[…]-3′ (SEQ ID NO:4))and human genomic DNA, isolated from blood, as a template. […]
Firefly and Renilla luciferase activities were measured in cell lysates made from transfected T-cells that were exposed to a plant extract or phytocompound, or underwent negative control treatment. […] The protein concentration in each lysate was determined using a Bradford reagent protein assay (Bio-Rad, Calif.).
Samples of ten micrograms of cell lysate protein were subjected to a dual luciferase reporter assay according to the manufacturer's instructions (Promega, Wis.). Firefly and Renilla luciferase activities were determined in each sample with a luminometer. […] The IFN γ or IL-2 promoter activity for each sample was calculated as a ratio of firefly luciferase to Renilla luciferase-dependent luminescence.

Compound: O=C(/C=C/c1ccc(O)c(O)c1)O[C@@H]1[C@H](O)C[C@@](O)(C(=O)O)C[C@H]1OC(=O)/C=C/c1ccc(O)c(O)c1 [4,5-di-O-caffeoylquinic acid]
- IFN γ promoter activity (concentration not given): did not induce a significant increase

Compound: COc1ccc(-c2oc3cc(O[C@@H]4O[C@H](CO)[C@@H](O)[C@H](O)[C@H]4O)c(OC)c(O)c3c(=O)c2OC)cc1O [Centaurein, centaurein]
- IFN γ promoter activity (100 μg/mL, relative to untreated cells, p<0.001): highly significant increase
